Assay results published in US10123985B2, “Therapeutic strategies for treating mitochondrial disorders” (Whitehead Institute for Biomedical Research, priority 2015, dated 2018).
“Also recorded” adds a separate entry of the source.

Legend:
143B CytB cells [1] = assay: Proliferation assay of respiration-incompetent 143B CytB cybrid cells; type: cell-based; details: media supplemented with the substance; no pyruvate unless tested, uridine present
Protocol: FL5.12 cells were cultured in the same medium and supplemented with 5 μg/mL recombinant mouse IL-3 (R&D Systems). […] All cells incubated at 37° C. with 5% CO2.
Adherent cell lines growing in log phase were trypsinized, counted, and plated onto 6 well dishes (Corning) in 2 mL complete DMEM and incubated overnight. […] The following day, one plate of cells was counted to determine the initial cell count at the time of treatment. Cells were washed 2 times with 2 mL phosphate buffered saline (PBS) and 4 mL media premixed with the indicated treatments was added. FL5.12 cells, a suspension cell line, were washed 2 times in PBS and added directly to media containing the indicated treatments and 5 μg/mL recombinant mouse IL-3. Proliferation rate assay media was DMEM without pyruvate containing 10% dialyzed FBS, penicillin-streptomycin, and 0.1 mg/mL uridine, unless otherwise noted. […] Cells were counted using Cellometer Auto T4 Plus Cell Counter (Nexcelom Bioscience). Proliferation rate was determined using the following formula: Proliferation Rate (Doublings per day)=(log2(Final cell count (day 5)/Initial cell count (day 1))/4 (days)

143B CytB cells [2] = assay: Cell cycle distribution by propidium iodide flow cytometry; type: cell-based; details: 143B CytB cells, 100 μM adenine, 78 hours
Protocol: 143B CytB cells were incubated in untreated media or media containing AKB or 100 μM adenine for 78 hours before being washed with PBS, trypsinized, pelleted, and resuspended in 500 μL PBS. Cells were fixed by adding 4.5 mL 70% ethanol and incubated at 4° C. overnight. The following day cells were pelleted and resuspended in 1 mL PBS+0.1% (v/v) Triton X-100. RNase A and then propidium iodide (PI) were added to 0.2 mg/mL and 20 μg/mL, respectively. Samples were incubated at 37° C. for 15 minutes and filtered into a flow cytometry tube. DNA content was measured by flow cytometry (BD FACS Canto II) and analyzed (FACS Diva Software).

Jurkat cells [3] = assay: Proliferation assay (Cell Titer Glo, 5 days) of wild type and knock-out Jurkat cells; type: cell-based, human
Protocol: sgRNAs (oligonucleotide sequences are indicated above) were cloned into lentiCRISPR-v1 linearized with BsmBI by Gibson Assembly (NEB). sgRNA expressing vector along with lentiviral packaging vectors Delta-VPR and CMV VSVG were transfected into HEK-293T cells using the XTremeGene 9 transfection reagent (Roche). Similarly, for overexpression cell lines, cDNA vectors along with retroviral packaging vectors gag-pol and CMV VSV-G were transfected into HEK-293T cells. Media was changed 24 hours after transfection.

Jurkat cells [4] = assay: [U-13C]-L-glutamine isotope tracing of aspartate in Jurkat cells; type: cell-based, human; details: phenformin (10 μM)
Protocol: (§1) LC/MS analyses were conducted on a QExactive benchtop orbitrap mass spectrometer equipped with an Ion Max source and a HESI II probe, which was coupled to a Dionex UltiMate 3000 UPLC system (Thermo Fisher Scientific, San Jose, Calif.). External mass calibration was performed using the standard calibration mixture every 7 days.
Polar metabolites were extracted using 1 ml of ice-cold 80% methanol with 10 ng/ml valine-d8 as an internal standard. After a 10 min vortex and centrifugation for 10 min at 4° C. at 10,000 g, samples were dried under nitrogen gas. Dried samples were stored at −80° C. and then resuspended in 100 μL water; 1 μl of each sample was injected onto a ZIC-pHILIC 2.1×150 mm (5 μm particle size) column (EMD Millipore). Buffer A was 20 mM ammonium carbonate, 0.1% ammonium hydroxide; buffer B was acetonitrile. […] Relative quantitation of polar metabolites was performed with XCalibur QuanBrowser 2.2 (Thermo Fisher Scientific) using a 5 ppm mass tolerance and referencing an in-house library of chemical standards.

Jurkat cells [5] = assay: Metabolite profiling (LC/MS) of Jurkat cells; type: cell-based, human
Protocol: as §1
Polar metabolites were extracted using 1 ml of ice-cold 80% methanol with 10 ng/ml valine-d8 as an internal standard. After a 10 min vortex and centrifugation for 10 min at 4° C. at 10,000 g, samples were dried under nitrogen gas. Dried samples were stored at −80° C. and then resuspended in 100 μL water; 1 μl of each sample was injected onto a ZIC-pHILIC 2.1×150 mm (5 μm particle size) column (EMD Millipore). Buffer A was 20 mM ammonium carbonate, 0.1% ammonium hydroxide; buffer B was acetonitrile. The chromatographic gradient was run at a flow rate of 0.150 ml/min as follows: 0-20 min.: linear gradient from 80% to 20% B; 20-20.5 min.: linear gradient from 20% to 80% B; 20.5-28 min.: hold at 80% B. The mass spectrometer was operated in fullscan, polarity switching mode with the spray voltage set to 3.0 kV, the heated capillary held at 275° C., and the HESI probe held at 350° C. The sheath gas flow was set to 40 units, the auxiliary gas flow was set to 15 units, and the sweep gas flow was set to 1 unit. The MS data acquisition was performed in a range of 70-1000 m/z, with the resolution set at 70,000, the AGC target at 106, and the maximum injection time at 80 msec. Relative quantitation of polar metabolites was performed with XCalibur QuanBrowser 2.2 (Thermo Fisher Scientific) using a 5 ppm mass tolerance and referencing an in-house library of chemical standards.

[6] = test system: Raji lymphoma and KMS-26 multiple myeloma cells; type: cell-based, human; details: 5-day treatment
Protocol: […]. Media was changed 24 hours after transfection.

Jurkat cells [7] = assay: Seahorse oxygen consumption of Jurkat cells; type: cell-based, human; details: phenformin (10 μM), wild type and GOT1 null
Protocol: Oxygen consumption of intact cells was measured using an XF24 Extracellular Flux Analyzer (Seahorse Bioscience). For Jurkat cells, seahorse plates were coated with cell TAK (BD, 0.02 mg/ml in […] NaHO3) for 20 minutes to increase adherence of suspension cells. 200,000 cells were then attached to the plate by centrifugation at 2,200 rpm without brakes for 5 min. RPMI 8226 (US biological #9011) assay media was used as previously described (Birsoy et al., 2014). For basal oxygen consumption measurements the cell number was used to normalize.

[8] = GOT1-null Jurkat cells, 24-hour phenformin

SMILES	Proliferation rate of 143B CytB cells (143B CytB cells [1])	Cell cycle distribution (DNA content) (143B CytB cells [2])	Proliferation of Jurkat cells (Jurkat cells [3]; 0.5 μM phenformin, pyruvate-free RPMI)	Viability and proliferation of GOT1-null versus wild type Jurkat cells (Jurkat cells [3]; higher concentrations of phenformin, 5 days)	Proliferation of GOT1-null versus wild type Jurkat cells (Jurkat cells [3]; low doses of phenformin, 5 days)	Aspartate synthesis from [U-13C]-L-glutamine (Jurkat cells [4]; GOT1-null Jurkat cells)	Aspartate synthesis from [U-13C]-L-glutamine (Jurkat cells [4]; wild type Jurkat cells)	Other amino acids (Jurkat cells [5]; [8])	Reduction of cellular aspartate (Jurkat cells [5]; [8])	Aspartate level (Jurkat cells [5]; MDH1-null Jurkat cells, phenformin (10 μM) 24 hours)	Fall of aspartate levels (Jurkat cells [5]; wild type Jurkat cells, 24-hour phenformin)	Sensitivity of GOT1-null versus wild type Raji and KMS-26 cells to phenformin [6]	Oxygen consumption (respiration) of Jurkat cells (Jurkat cells [7])
Nc1ncnc2nc[nH]c12 [adenine, reference compound]	restored proliferation for one doubling	alleviated the slight accumulation of cells at the S/G2 transition	–	–	–	–	–	–	–	–	–	–	–
[H]/N=C(/N)N/C(=N/[H])NCCc1ccccc1 [phenformin, reference compound]	–	–	only mildly slowed proliferation	GOT1-null cells die; also recorded: GOT1-null cells arrested and died, while the wild type counterparts did not	inhibited the proliferation of GOT1-null cells to a much greater extent than that of wild type cells	almost no generation of aspartate from labeled glutamine	aspartate is mainly synthesized by reductive metabolism of glutamine in a GOT1-dependent manner; also recorded: aspartate synthesis dropped, and what remained came primarily from reductive glutamine metabolism with almost no contribution from the oxidative pathway	without much effect on other amino acids	~30 fold	dropped to the same level as it did in wild type cells	~3 fold	GOT1 loss sensitizes various human cell types to phenformin treatment; also recorded: far more sensitive to phenformin than their wild type counterparts	suppressed respiration as measured by oxygen consumption; also recorded: inhibits oxygen consumption of wild type and GOT1 null Jurkat cells
